Test results from patent US11351178B2, “Selective HDAC6 inhibitors” (ITALFARMACO S.P.A., priority 2017, dated 2022).
pIC50: −log10 of the molar value. Read-outs that look alike come from different tables or passages of the source.

Legend:
HDAC5 = biological target: T1, HDAC5 (Homo sapiens, UniProt Q9UQL6); test: Enzymatic test HDAC5; format: biochemical; conditions: Table 3
T1 construct: purchased BPS 50005
Description: (§1) After a period of incubation at 30° C. (incubation times vary for different isoforms and are shown in table 1) 25 μL of solution containing the substrate were added. As substrate, FLUOR DE LYS® deacetylase substrate (Enzo Life Sciences, cat #BML-K1104, FdL), FLUOR DE LYS®-Green substrate (Enzo Life Sciences, cat #BML-K1572 FdL_G) and trifluoroacetyl-L-lysine (Tfal)-2× concentrated solution in 25 mM Tris-HCl, pH 8, 130 mM NaCl 0.05% Tween-20 10% glycerol) were used. Following a reaction period at 30° C.

Stability in rat plasma = format: in vitro ADME; conditions: after 4 hours, 37° C.
Procedure, shortened: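 Compounds incubated at 37° C in rat or human plasma at 50 μM (UV/HPLC) or 1 or 2 μM (LC-MS/MS) for 0–4 h. Reaction stopped with acidified acetonitrile on ice; percent remaining versus initial amount and plasma half-life calculated.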

HDAC1 = biological target: T2, HDAC1 (Homo sapiens, UniProt Q13547); test: Enzymatic test HDAC1; format: biochemical; conditions: Table 3
T2 construct: purchased BPS 50051
T2 sequence (Q13547 whole entry): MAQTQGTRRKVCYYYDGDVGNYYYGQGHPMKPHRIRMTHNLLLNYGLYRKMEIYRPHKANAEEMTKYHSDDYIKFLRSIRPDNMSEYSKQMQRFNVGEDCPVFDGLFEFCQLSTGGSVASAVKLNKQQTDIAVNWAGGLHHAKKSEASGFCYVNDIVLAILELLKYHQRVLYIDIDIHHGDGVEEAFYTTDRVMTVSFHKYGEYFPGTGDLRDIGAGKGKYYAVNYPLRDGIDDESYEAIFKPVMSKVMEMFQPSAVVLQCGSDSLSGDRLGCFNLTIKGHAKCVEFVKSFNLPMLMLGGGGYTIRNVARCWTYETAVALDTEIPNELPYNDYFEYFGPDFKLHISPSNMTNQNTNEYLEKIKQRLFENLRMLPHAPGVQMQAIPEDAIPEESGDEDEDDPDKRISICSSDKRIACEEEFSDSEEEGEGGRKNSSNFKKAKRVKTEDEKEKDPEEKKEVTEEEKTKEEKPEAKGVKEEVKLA

HDAC7 = biological target: T3, HDAC7 (Homo sapiens, UniProt Q8WUI4); test: Enzymatic test HDAC7; format: biochemical; conditions: Table 3
T3 construct: purchased BPS 50007
T3 sequence (Q8WUI4 518-952 limits assumed): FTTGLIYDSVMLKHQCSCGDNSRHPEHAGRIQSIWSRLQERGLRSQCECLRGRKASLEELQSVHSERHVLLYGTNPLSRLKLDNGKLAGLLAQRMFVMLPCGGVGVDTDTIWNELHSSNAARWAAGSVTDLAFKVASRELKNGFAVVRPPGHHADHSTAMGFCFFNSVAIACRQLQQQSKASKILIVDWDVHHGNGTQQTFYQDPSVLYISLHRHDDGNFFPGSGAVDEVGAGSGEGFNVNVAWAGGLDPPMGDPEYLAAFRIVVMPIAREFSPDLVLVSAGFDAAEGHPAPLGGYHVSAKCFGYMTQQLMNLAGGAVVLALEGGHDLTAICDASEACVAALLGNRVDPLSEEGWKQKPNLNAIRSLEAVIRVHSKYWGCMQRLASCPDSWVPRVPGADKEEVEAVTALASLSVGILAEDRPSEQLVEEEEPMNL
Description: as §1

recombinant human HDAC6 = biological target: T4, recombinant human HDAC6 (Homo sapiens, UniProt Q9UBN7); test: Enzymatic screening on recombinant human HDAC6; format: biochemical; conditions: read-out: HDAC6 IC50
T4 sequence (Q9UBN7 1-1215): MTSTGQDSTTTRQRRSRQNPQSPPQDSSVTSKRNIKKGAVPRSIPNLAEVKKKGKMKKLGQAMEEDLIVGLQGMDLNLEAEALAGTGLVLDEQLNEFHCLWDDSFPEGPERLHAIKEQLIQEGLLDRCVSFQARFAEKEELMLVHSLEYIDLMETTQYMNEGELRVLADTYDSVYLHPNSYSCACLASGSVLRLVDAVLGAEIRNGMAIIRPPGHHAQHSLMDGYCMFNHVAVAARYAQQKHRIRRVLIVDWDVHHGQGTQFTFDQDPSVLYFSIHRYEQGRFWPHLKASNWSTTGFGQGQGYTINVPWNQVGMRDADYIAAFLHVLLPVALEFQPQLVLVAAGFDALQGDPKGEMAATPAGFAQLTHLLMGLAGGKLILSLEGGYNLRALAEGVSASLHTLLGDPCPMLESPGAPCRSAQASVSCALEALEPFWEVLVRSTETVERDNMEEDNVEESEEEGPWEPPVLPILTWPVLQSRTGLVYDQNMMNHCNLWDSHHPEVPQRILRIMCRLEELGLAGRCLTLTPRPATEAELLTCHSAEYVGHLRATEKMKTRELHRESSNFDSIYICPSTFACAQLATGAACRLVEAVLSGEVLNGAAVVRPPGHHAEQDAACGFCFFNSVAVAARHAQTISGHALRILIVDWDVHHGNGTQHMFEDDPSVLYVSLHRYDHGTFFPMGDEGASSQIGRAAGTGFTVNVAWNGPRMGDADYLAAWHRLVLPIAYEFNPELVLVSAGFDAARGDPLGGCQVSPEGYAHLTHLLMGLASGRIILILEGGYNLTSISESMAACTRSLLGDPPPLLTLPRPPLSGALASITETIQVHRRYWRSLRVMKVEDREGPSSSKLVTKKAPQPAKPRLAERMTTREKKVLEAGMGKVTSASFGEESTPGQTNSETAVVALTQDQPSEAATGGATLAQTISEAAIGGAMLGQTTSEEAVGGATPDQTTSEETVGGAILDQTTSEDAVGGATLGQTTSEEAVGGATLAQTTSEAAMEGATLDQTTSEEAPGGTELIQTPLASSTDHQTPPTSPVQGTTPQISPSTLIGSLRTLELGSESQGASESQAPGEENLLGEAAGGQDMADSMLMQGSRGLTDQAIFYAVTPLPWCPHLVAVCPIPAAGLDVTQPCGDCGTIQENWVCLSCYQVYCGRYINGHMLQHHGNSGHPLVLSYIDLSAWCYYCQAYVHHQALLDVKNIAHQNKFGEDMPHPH
Procedure, shortened: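 Buffer for substrate addition: 25 mM Tris-HCl pH 8, 130 mM NaCl, 0.05% Tween-20, 10% glycerol, substrate 2× concentrated (FdL, FdL-Green or trifluoroacetyl-lysine). Recombinant human HDAC was preincubated with compound at 30 °C beforehand, timing isoform-dependent, and the reaction was likewise run at 30 °C.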

[1] = Stability to Phase I metabolism in rat S9 liver fraction; format: in vitro ADME; conditions: after 90 min, 37° C.
Procedure, shortened: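 Compounds were incubated with rat or human liver S9 fraction at 37 °C for up to 90 min. Reactions were quenched on ice with acidified acetonitrile and analysed by HPLC-UV or LC-MS/MS. Percent remaining versus time zero and intrinsic clearance were calculated.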

T1 sequence (Q9UQL6 656-1122 limits assumed): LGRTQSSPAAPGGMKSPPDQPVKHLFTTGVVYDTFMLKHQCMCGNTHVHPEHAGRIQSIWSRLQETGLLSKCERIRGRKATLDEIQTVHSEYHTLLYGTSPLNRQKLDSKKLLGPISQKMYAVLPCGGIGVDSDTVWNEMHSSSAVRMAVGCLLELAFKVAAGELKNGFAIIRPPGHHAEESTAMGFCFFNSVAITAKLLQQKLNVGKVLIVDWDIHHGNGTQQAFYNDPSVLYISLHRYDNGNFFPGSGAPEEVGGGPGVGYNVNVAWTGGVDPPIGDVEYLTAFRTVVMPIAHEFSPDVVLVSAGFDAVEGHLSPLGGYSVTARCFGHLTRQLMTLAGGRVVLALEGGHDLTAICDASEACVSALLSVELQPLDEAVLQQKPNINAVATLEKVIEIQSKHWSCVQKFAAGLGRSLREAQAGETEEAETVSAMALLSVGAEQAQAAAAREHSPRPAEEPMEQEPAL

| pIC50 (HDAC5) | residual percentage in rat plasma (Stability in rat plasma) [%] | pIC50 (HDAC1) | pIC50 (HDAC7) | pIC50 (recombinant human HDAC6; Table 2) | pIC50 (recombinant human HDAC6; Table 3) | residual percentage in rat S9 fraction [1] [%] | SMILES |
| --- | --- | --- | --- | --- | --- | --- | --- |
| 5.93 | 90 | 6.37 | 5.99 | 8.00 | 8.00 | 68 | Nn1c(Sc2ccc(C(=O)NO)cc2)nnc1-c1ccc(OC(F)F)cc1 [comp. 28, 4-[[4-amino-5-[4-(difluoromethoxy)phenyl]-1,2,4-triazol-3-yl]sulfanyl]benzenecarbohydroxamic acid] |
| 6.25 | 76 | 6.33 | 6.29 | 8.30 | 8.30 | 75 | Cc1cc(-c2nnc(Sc3ccc(C(=O)NO)cc3)n2C)nn1C [comp. 85, 4-[[5-(1,5-dimethylpyrazol-3-yl)-4-methyl-1,2,4-triazol-3-yl]sulfanyl]benzenecarbohydroxamic acid] |
| 6.49 | 66 | 6.13 | 6.67 | 8.22 | 8.22 | 54 | CCN(CC)S(=O)(=O)c1cccc(-c2nnc(Sc3ccc(C(=O)NO)cc3)n2C)c1 [comp. 66, 4-[[5-[3-(diethylsulfamoyl)phenyl]-4-methyl-1,2,4-triazol-3-yl]sulfanyl]benzenecarbohydroxamic acid] |
| 5.89 | 77 | 5.33 | 6.12 | 7.80 | 7.80 | 32 | CN(C)c1cccc(-c2nnc(Sc3c(F)cc(C(=O)NO)cc3F)n2C)c1 [comp. 80, 4-[[5-[3-(dimethylamino)phenyl]-4-methyl-1,2,4-triazol-3-yl]sulfanyl]-3,5-difluoro-benzenecarbohydroxamic acid] |
| 5.92 | 88 | 5.62 | 5.97 | 8.22 | 8.22 | 8 | O=C(NO)c1cc(F)c(Cn2nnc(-c3cccs3)n2)c(F)c1 [comp. 65, 3,5-difluoro-4-[[5-(2-thienyl)tetrazol-2-yl]methyl]benzenecarbohydroxamic acid] |
| 5.60 | 71 | 6.31 | 6.28 | 8.05 | 8.05 | 49 | CCN(CC)S(=O)(=O)c1cccc(-c2nnc(Sc3ccc(C(=O)NO)cc3)n2N)c1 [comp. 61, 4-[[4-amino-5-[3-(diethylsulfamoyl)phenyl]-1,2,4-triazol-3-yl]sulfanyl]benzenecarbohydroxamic acid] |
| 5.43 | 106 | 6.44 | 5.82 | 8.22 | 8.22 | 15 | O=C(NO)c1ccc(Cc2nnc(-c3ccc(F)cc3F)o2)cc1 [comp. 58, 4-((5-(2,4-difluorophenyl)-1,3,4-oxadiazol-2-yl)methyl)-N-hydroxybenzamide] |
| 5.32 | 77 | 6.21 | 5.18 | 7.96 | 7.96 | 8 | O=C(NO)c1ccc(Cn2nnc(-c3ccc(C(F)(F)F)cc3)n2)cc1 [comp. 23, 4-[[5-[4-(trifluoromethyl)phenyl]tetrazol-2-yl]methyl]benzenecarbohydroxamic acid] |
